# Article PMC5309242, “Substrate-Dependence of Competitive Nucleotide Pyrophosphatase/Phosphodiesterase1 (NPP1) Inhibitors” (Frontiers in Pharmacology, 2017)
# Like-named read-outs stand apart in the source and are kept apart here. Marks after values point to notes of the source that are not given here.
# T1: human NPP1 (Homo sapiens, UniProt P22413)
# T1 construct: Human recombinant soluble NPP1 (Val191—Leu591) expressed in murine myeloma NS0 cells; His-tag (N); purchased R&D Systems GmbH (Wiesbaden, Germany); host or cells: murine myeloma NS0 cells
# T1 sequence (P22413 191-591): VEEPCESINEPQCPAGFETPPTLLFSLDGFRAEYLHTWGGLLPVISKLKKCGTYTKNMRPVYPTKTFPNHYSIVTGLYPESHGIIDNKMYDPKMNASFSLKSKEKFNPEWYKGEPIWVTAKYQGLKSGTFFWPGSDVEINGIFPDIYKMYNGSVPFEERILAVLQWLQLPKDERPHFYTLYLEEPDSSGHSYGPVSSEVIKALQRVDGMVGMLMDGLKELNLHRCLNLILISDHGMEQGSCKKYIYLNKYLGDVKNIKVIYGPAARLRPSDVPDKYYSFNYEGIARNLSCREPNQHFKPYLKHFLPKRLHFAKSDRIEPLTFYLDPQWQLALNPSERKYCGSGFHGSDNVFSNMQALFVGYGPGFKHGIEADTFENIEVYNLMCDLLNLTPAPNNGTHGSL
# Experiments:
# human NPP1 [1] = target: T1, human NPP1; assay: NPP1 inhibition vs. natural substrate ATP (CE, AMP quantified by UV at 260 nm); assay type: biochemical
# human NPP1 [2] = target: T1, human NPP1; assay: NPP1 inhibition vs. artificial substrate p-Nph-5′-TMP (p-nitrophenolate at 400 nm); assay type: biochemical
# human NPP1 [3] = target: T1, human NPP1; assay: NPP1 inhibition vs. new artificial substrate p-Nph-5′-AMP (p-nitrophenolate at 400 nm); assay type: biochemical
# human NPP1 [4] = target: T1, human NPP1; assay: Inhibition constants and mechanism of inhibition (Hanes-Woolf plots) compared across all investigated substrates; assay type: biochemical; settings: for Inhibition type: Hanes-Woolf plots, same type vs. all three substrates (ATP, p-Nph-5′-TMP, p-Nph-5′-AMP)
# human NPP1 [5] = target: T1, human NPP1; design: method as in Namasivayam et al., 2017; settings: substrate of NPP1; ref Namasivayam et al., 2017; cited from earlier work
# human NPP1 [6] = target: T1, human NPP1; design: method as in Chang et al., 2014; settings: more potent vs. p-Nph-5′-TMP than vs. ATP; ref Chang et al., 2014; cited from earlier work
# NPP1 = settings: cited from earlier work; for Ki: vs. ATP as a substrate, ref Iqbal et al., 2008
# human NPP1 [7] = target: T1, human NPP1; design: method as in Lee and Müller, 2014; settings: ref Lee and Müller, 2014; cited from earlier work
# human NPP1 [8] = target: T1, human NPP1; assay: Enzyme kinetic parameters of NPP1 substrates; assay type: biochemical; settings: for kcat: substrate of human NPP1, pH 9.0, 37°C
# Protocol: (§1) Enzyme kinetic parameters were measured for p-Nph-5′-TMP and p-Nph-5′-AMP, both being artificial substrates of human NPP1. Solutions with different concentrations of both substrates (ranging from 1.0 to 500 μM) were prepared in 10 mM CHES buffer (in mM: 1 MgCl2, 2 CaCl2, 10 CHES, pH 9.0) and added in a final volume of 100 μl to 96-well-plates. The enzyme reactions were initiated by the addition of 20 ng of human NPP1 (for p-Nph-5′-TMP), or 75 ng of human NPP1 (for p-Nph-5′-AMP). The mixture was incubated at 37°C for 15 min (p-Nph-5′-TMP), or 30 min (for p-Nph-5′-AMP), respectively, and subsequently terminated by the addition of 20 μl of 1.0 N aqueous NaOH solution. The amounts of p-nitrophenolate liberated were measured at 400 nm. Each analysis was repeated twice in three separate experiments.
# human NPP1 [9] = target: T1, human NPP1; settings: read-out: Ki, ATP; substrate ATP; mean ± SEM; ref Lee et al., 2015; cited from earlier work
# [10] = substrate: Cc1cn([C@H]2C[C@H](O)[C@@H](COP(=O)(O)Oc3ccc([N+](=O)[O-])cc3)O2)c(=O)[nH]c1=O; assay: Enzyme kinetic parameters of NPP1 substrates; assay type: biochemical; settings: other: substrate of human NPP1, pH 9.0, 37°C
# Protocol: as §1
# [11] = substrate: Nc1ncnc2c1ncn2[C@@H]1O[C@H](COP(=O)(O)Oc2ccc([N+](=O)[O-])cc2)[C@@H](O)[C@H]1O; assay: Enzyme kinetic parameters of NPP1 substrates; assay type: biochemical; settings: other: substrate of human NPP1, pH 9.0, 37°C
# Protocol: as §1
# [12] = substrate p-Nph-5′-TMP, mean ± SD of three independent experiments, read-out: Ki ± SD, p-Nph-5′-TMP
# [13] = substrate p-Nph-5′-AMP, mean ± SD of three independent experiments, read-out: Ki ± SD, p-Nph-5′-AMP
molecule,measurement,setting,value
"CSc1nc(N)c2ncn([C@@H]3O[C@H](COP(=O)(O)OP(=O)(O)O)[C@@H](O)[C@H]3O)c2n1 [2-MeSADP, 2-methylthio-adenosine 5′-diphosphate]",Ki,human NPP1 [1],32.8 ± 7 µM
same,Ki,human NPP1 [2]; [12],2.18 ± 0.29 µM
same,Ki,human NPP1 [3]; [13],35.4 ± 6.4 µM
same,Inhibition type,human NPP1 [4],Competitive
"CSc1nc(N)c2ncn([C@@H]3O[C@H](COP(=O)(O)OP(=O)(O)OP(=O)(O)O)[C@@H](O)[C@H]3O)c2n1 [2-MeSATP, 2-methylthio-adenosine 5′-triphosphate]",Ki,human NPP1 [1],25.3 ± 5.9 µM
same,Ki,human NPP1 [2]; [12],4.47 ± 0.66 µM
same,Ki,human NPP1 [3]; [13],39.9 ± 6.9 µM
same,Inhibition type,human NPP1 [4],Competitive
"Nc1ncnc2c1ncn2[C@@H]1O[C@H](COP(=O)(O)OP(=O)(O)OP(=O)(O)O)[C@@H](O)[C@H]1O [ATP, adenosine 5′-triphosphate]",kcat,human NPP1 [5],5.51 s⁻¹
"COc1ccc(NC(=O)CSc2nc3c(N)ncnc3[nH]2)cc1OC [PZB08513136A, 2-(6-Amino-9H-purin-8-ylthio)-N-(3,4-dimethoxyphenyl)acetamide]",Ki,human NPP1 [3]; [13],14.9 ± 0.8 µM
same,Inhibition type,human NPP1 [4],Competitive
same,"fold difference in potency, p-Nph-5′-TMP vs. ATP as substrate",human NPP1 [6],more than 100 fold
"COc1cc2ncnc(N3CCC(CCNS(N)(=O)=O)CC3)c2cc1OC [SAR 03004, N-[2-[1-(6,7-Dimethoxyquinazolin-4-yl)piperidin-4-yl]ethyl]sulfuric diamide]",Inhibition type,human NPP1 [4],Competitive
"Nc1ncnc2c1ncn2[C@@H](C=O)O[C@@H](C=O)COP(=O)(O)OP(=O)(O)O [dialADP, Adenosine 5′-diphosphate-2′,3′-dialdehyde]",Ki,human NPP1 [1],5.62 ± 1.23 µM
same,Ki,human NPP1 [2]; [12],5.03 ± 0.15 µM
same,Ki,human NPP1 [3]; [13],5.09 ± 1.72 µM
same,Ki,human NPP1 [4],~5 µM
same,Inhibition type,human NPP1 [4],Non-competitive
same,manner of NPP1 inhibition,human NPP1 [7],non-competitive
"Nc1ncnc2c1ncn2[C@@H](C=O)O[C@@H](C=O)COP(=O)(O)OP(=O)(O)OP(=O)(O)O [dialATP, adenosine 5′-triphosphate-2′,3′-dialdehyde]","αKi ± SD, ATP","human NPP1 [1]; αKi-value (un-competitive inhibitor), substrate ATP, mean ± SD of three independent experiments",6.82 ± 1.01^b μM
same,"αKi ± SD, p-Nph-5′-TMP","human NPP1 [2]; αKi-value (un-competitive inhibitor), substrate p-Nph-5′-TMP, mean ± SD of three independent experiments",4.09 ± 0.41^b μM
same,"αKi ± SD, p-Nph-5′-AMP","human NPP1 [3]; αKi-value (un-competitive inhibitor), substrate p-Nph-5′-AMP, mean ± SD of three independent experiments",5.08 ± 0.33^b μM
same,Ki,human NPP1 [4],~5 µM
same,Inhibition type,human NPP1 [4],Un-competitive
same,manner of NPP1 inhibition,human NPP1 [7],uncompetitive
"Nc1ncnc2c1ncn2[C@@H]1O[C@H](COP(=O)(O)Oc2ccc([N+](=O)[O-])cc2)[C@@H](O)[C@H]1O [p-Nph-5′-AMP, p-nitrophenyl 5′-adenosine monophosphate]",Km-value fold higher than that for ATP,human NPP1 [8]; compared to natural substrate ATP,> 20 fold
same,kcat,human NPP1 [8],2.51 s⁻¹
"Cc1cn([C@H]2C[C@H](O)[C@@H](COP(=O)(O)Oc3ccc([N+](=O)[O-])cc3)O2)c(=O)[nH]c1=O [p-Nph-5′-TMP, p-Nitrophenyl 5′-thymidine monophosphate]",kcat-value fold higher than that for p-Nph-5′-AMP,human NPP1 [8]; compared to p-Nph-5′-AMP,~10 fold
same,kcat,human NPP1 [8],22.3 s⁻¹
Nc1c(S(=O)(=O)O)cc(Nc2ccc(Nc3nc(Cl)nc(Nc4cccc(S(=O)(=O)O)c4)n3)c(S(=O)(=O)O)c2)c2c1C(=O)c1ccccc1C2=O [reactive blue 2],Ki,human NPP1 [1],0.141 ± 0.031 µM
same,Ki,human NPP1 [2],0.198 ± 0.034 µM
same,Ki,human NPP1 [3],0.176 ± 0.025 µM
same,Inhibition type,human NPP1 [4],Non-competitive
same,Ki,NPP1,0.52 µM
Cc1ccc(C(=O)Nc2ccc(S(=O)(=O)O)c3cc(S(=O)(=O)O)cc(S(=O)(=O)O)c23)cc1NC(=O)c1cccc(NC(=O)Nc2cccc(C(=O)Nc3cc(C(=O)Nc4ccc(S(=O)(=O)O)c5cc(S(=O)(=O)O)cc(S(=O)(=O)O)c45)ccc3C)c2)c1 [suramin],Ki,NPP1,0.26 µM
"Nc1ncnc2c1ncn2[C@@H]1O[C@H](COP(=O)(O)CP(=O)(O)O)[C@@H](O)[C@H]1O [α,β-metADP, adenosine 5′-(α,β-methylene)diphosphate]",Ki,human NPP1 [1],16.5 ± 3.1 µM
same,Ki,human NPP1 [2],1.28 ± 0.16 µM
same,Ki,human NPP1 [3],25.8 ± 4.1 µM
same,Inhibition type,human NPP1 [4],Competitive
"Nc1ncnc2c1ncn2[C@@H]1O[C@H](COP(=O)(O)CP(=O)(O)OP(=O)(O)O)[C@@H](O)[C@H]1O [α,β-metATP, adenosine 5′-(α,β-methylene)triphosphate]",Inhibition type,human NPP1 [4],Competitive
[TiW11CoO40]^8−,Ki,human NPP1 [2]; [12],0.00199 ± 0.00033 µM
same,Ki,human NPP1 [3]; [13],0.00174 ± 0.00099 µM
same,Inhibition type,human NPP1 [4],Non-competitive
same,Ki,human NPP1 [9],0.00146 ± 1e-05 µM
"human NPP1 (Homo sapiens) (protein, Human recombinant soluble NPP1 (Val191—Leu591) expressed in murine myeloma NS0 cells; His-tag (N); purchased R&D Systems GmbH (Wiesbaden, Germany); host or cells: murine myeloma NS0 cells) VEEPCESINEPQCPAGFETPPTLLFSLDGFRAEYLHTWGGLLPVISKLKKCGTYTKNMRPVYPTKTFPNHYSIVTGLYPESHGIIDNKMYDPKMNASFSLKSKEKFNPEWYKGEPIWVTAKYQGLKSGTFFWPGSDVEINGIFPDIYKMYNGSVPFEERILAVLQWLQLPKDERPHFYTLYLEEPDSSGHSYGPVSSEVIKALQRVDGMVGMLMDGLKELNLHRCLNLILISDHGMEQGSCKKYIYLNKYLGDVKNIKVIYGPAARLRPSDVPDKYYSFNYEGIARNLSCREPNQHFKPYLKHFLPKRLHFAKSDRIEPLTFYLDPQWQLALNPSERKYCGSGFHGSDNVFSNMQALFVGYGPGFKHGIEADTFENIEVYNLMCDLLNLTPAPNNGTHGSL",Km,[10],222 µM
same,Km,[11],188 µM
same,kcat,[11],2.51 s⁻¹
same,kcat/Km,[11],13400 M⁻¹ s⁻¹
